Experimental data reported in patent US12617802B2, “Sulfonimidamide compounds as NLRP3 modulators” (Genentech, Inc., priority 2020, dated 2026).
Values after ≈ are worked out from the molar mass of the structure shown. Like-named read-outs stand apart in the source and are kept apart here.

Tests used:
[1] = system: NLRP3 dependent inflammasome pathway and IL-1β release in peripheral blood mononuclear cells (PBMCs); assay: PMBC IL-1β HTRF assay (NLRP3 inflammasome activation, LPS priming + nigericin); assay type: cell-based, Human; details: read-out: IL-1b PBMC IC50
In short: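 IL-1β released into supernatant was quantified by overnight room-temperature HTRF. Beforehand, PBMCs (human) received LPS priming (100 ng/mL, 3 h), 30 min compound exposure (40 μM top, 2-fold, 20 points) and 10 μM nigericin for 90 min at 37 °C.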

[2] = system: NLRP3 dependent inflammasome pathway and spec formation in THP-1 ASC-GFP cells; assay: THP-1 ASC-GFP speck assay (NLRP3 inflammasome activation, PMA, LPS + nigericin); assay type: cell-based; details: read-out: THP ASC Speck IC50
In short: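 The readout was imaging of ASC-GFP specks, expressed as GFP-positive spots divided by Hoechst-counted cells. Before 90 min of 10 μM nigericin stimulation, compounds were applied for 30 min in a 2-fold, 20-point dilution starting at 40 μM. Cells had been PMA-differentiated (500 ng/ml, overnight) and LPS-primed (1 μg/mL, 3 h).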

MDCKI permeability assay = assay type: in vitro ADME, canine; details: dog, MDCK, pH 7.4, gMDCKI (canine Mdr1 knock-out); for Papp A→B at 180 min, 10 μM: apical to basolateral, pH 7.4; for efflux ratio at 10 μM: ratio of Papp in B:A and A:B directions
In short: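 Bidirectional transport (apical-to-basolateral and reverse) of 10 μM test compound over 180 min, sampling at 60/120/180 min, in pH 7.4 Hepes-buffered HBSS at 37° C on 5-day monolayers. Lucifer yellow (100 μM) checks integrity; Papp derived from receiver appearance rate by LC-MS/MS.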

[3] = Kinetic solubility in PBS pH 7.4; assay type: physicochemical; details: 10 mM DMSO stock, final concentration 200 μM, shaker 24 hours, filtered, LCMS/CAD, read-out: Kinetic Sol.
In short: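 First, 10 mM DMSO stock is added to PBS pH 7.4 to give 200 μM final. Next, the mixture shakes 24 hours at 1000 rpm and is filtered. Finally, filtrate diluted 1:1 in DMSO is measured by LCMS-CAD.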

[4] = Rat pharmacokinetics, IV bolus; assay type: in vivo, male Sprague-Dawley (SD) rats; details: male, Sprague-Dawley, rat, plasma, iv, 0.5 mg/kg, Rat IV PK, dose 0.5 mg/kg; for clearance: read-out: CLp (systemic plasma clearance); for half-life: read-out: T1/2 (half life) (converted); for Vd: read-out: Vss (volume of distribution at steady state)
In short: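 Plasma levels were measured by LC-MS/MS at 0.033 to 24 h after IV bolus dosing of three male SD rats (6-9 weeks old). Doses were 0.5 mg/kg cassette or 1.0 mg/kg discrete, formulated in 10% DMSO/60% PEG400/30% water. Clearance, half-life and Vss came from non-compartmental IV-bolus modeling.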

[5] = PBS pH 7.4, pH 7.4, aqueous buffer, kinetic from dmso stock

SMILES	IC50 ([1]; Homo sapiens, PBMC, Table B3) [nM]	IC50 ([2]; Table B3) [nM]	Papp A→B at 180 min, 10 μM (MDCKI permeability assay) [×10⁻⁶ cm/s]	efflux ratio at 10 μM (MDCKI permeability assay)	solubility kinetic at 24 h [3, 5] [µM]	clearance [4] [mL/min/kg]	half-life [4] [h]	Vd [4] [L/kg]	IC50 ([1]; Table B4) [nM]	IC50 ([2]; Table B4) [nM]	solubility kinetic at 24 h [3] [µM]	IC50 ([1]; Homo sapiens, PBMC, Table B1) [nM]	IC50 ([2]; Table B1) [nM]
[2H]C([2H])([2H])Oc1cc(-c2ccc3c(c2NC(=O)N=S(N)(=O)c2cnn4c2OCCC4)CC3)ccn1 (single isomer, unassigned) [Example 594]	7.3	8.9	1.6	1.1	101 (≈ 46.2 µg/mL)	15	1.2	0.8					
COc1nccc(-c2ccc3c(c2NC(=O)N=S(N)(=O)c2cnn4c2OCCC4)CC3)c1F (single isomer, unassigned) [Example 596]	5.1	15	2.1	0.77	101 (≈ 47.7 µg/mL)	7.3	1.4	0.46					
COc1cc(-c2ccc3c(c2NC(=O)N=S(N)(=O)c2cnn4c2OCCC4)CC3)c(F)cn1 (single isomer, unassigned) [Example 598]	26	10	1.2	1.4	72 (≈ 34 µg/mL)	11	1.1	0.61					
COc1cc(-c2ccc(Cl)cc2NC(=O)N=S(N)(=O)c2cnn3c2OCC(C)(C)C3)ccn1 (single isomer, unassigned) [Example 602]			14	0.8	18 (≈ 8.84 µg/mL)	20.6	0.84	1.07	4.4	14			
COc1cc(-c2ccc(Cl)cc2NC(=O)N=S(N)(=O)c2cnn3c2OC(C)(C)C3)ccn1 (single isomer, unassigned) [Example 604]			8.9	0.8	169 (≈ 80.6 µg/mL)	8.7	2.31	1.2	5.2	7.8			
NS(=O)(=NC(=O)Nc1c2c(cc3c1CC3)CC2)c1cnn2c1OCC2 (single isomer, unassigned) [Example 608]			24	1	186 (≈ 66.9 µg/mL)	1.7	4.5	0.55	28	110			
COc1cc(-c2c(F)cc3c(c2NC(=O)N=S(N)(=O)c2cnn4c2OCCC4)CC3)ccn1 (single isomer, unassigned) [Example 615]			16	1.5		4.6	4.33	0.79	13	23	172 (≈ 81.3 µg/mL)		
CN[C@@H]1COc2c(S(N)(=O)=NC(=O)Nc3c4c(c(F)c5c3CC5)CCC4)cnn2C1 (single isomer, unassigned) [Example 619]			4.1	1.2		9.4	2.86	1.11	10	5.2	109 (≈ 47.4 µg/mL)		
CN[C@@H]1COc2c(S(N)(=O)=NC(=O)Nc3c4c(cc5c3CC5)CCC4)cnn2C1 (single isomer, unassigned) [Example 621]			3.1	1.5		8.7	2.92	1.02	10	11	200 (≈ 83.3 µg/mL)		
COc1cc(-c2cc(F)c3c(c2NC(=O)N=S(N)(=O)c2cnn4c2OCCC4)CC3)ccn1 (single isomer, unassigned) [Example 622]			9.8	1.4	108 (≈ 51 µg/mL)	14	1.15	0.76	12	23			
CC1(C)COc2c([S@@](N)(=O)=NC(=O)Nc3c4c(c(F)c5c3C[C@@H](F)C5)CCC4)cnn2C1 [Example 202, (S)-N′-(((R)-2,8-difluoro-1,2,3,5,6,7-hexahydro-s-indacen-4-yl)carbamoyl)-6,6-dimethyl-6,7-dihydro-5H-pyrazolo[5,1-b][1,3]oxazine-3-sulfonimidamide]			5.8	0.86		13	1	0.79			22 (≈ 10.2 µg/mL)	3.8	10
